Assay results reported in US12150942B2, “Cerdulatinib for treating myeloma” (Alexion Pharmaceuticals, Inc., priority 2015, dated 2024).
Entries after “also recorded” stand apart in the source; their conditions may differ.

Columns and labels:
[1] = test system: multiple myeloma cell lines (LP1, OPM2, MOLP1, RPMI8226, U266B1, NCIH929); assay: Cell proliferation (EdU as indicator) in multiple myeloma cell lines; type: cell-based; details: FGFR3 positive and FGFR3 negative MM cell lines
Description: (§1) Six multiple myeloma cell lines were tested in this example for the expression level of p90RSK. The cell lines included LP1, OPM2, MOLP1, RPMI8226, U266B1, and NCIH929. Beta-actin was used as control, and the expression levels of FGF receptor 3 (FGFR3), phospho-S380 RSK. and RSK1/RSK2/RSK3 were also measured.
(§2) Cerdulatinib was tested with same cell lines as used in Example 1. […] Also like BI-D1870, there was no relationship between the activity of cerdulatinib and the status of FGFR3.

[2] = test system: multiple myeloma cell lines (LP1, OPM2, MOLP1, RPMI8226, U266B1, NCIH929); assay: Caspase3 activation (apoptosis) in multiple myeloma cell lines; type: cell-based; details: FGFR3 positive and FGFR3 negative MM cell lines; BI-D1870 at 1.2 μM, 2.5 μM, 5 μM
Description: as §1
A p90RSK inhibitor, BI-D1870 (see, e.g., Sapkota et al., Biochem J. 2007, 401(Pt 1): 29-38), was added to the medium for each cell line at three difference concentrations. 1.2 μM, 2.5 μM, and 5 μM.
as §2

[3] = test system: DLBCL, MCL, Burkitt's lymphoma, ALL, MM and AML cells; assay: Cytotoxicity (IC50) across cancer types; type: cell-based
Description: The cytotoxicity of cerdulatinib was also compared to Comp A in other types of cancer cells.

[4] = test system: AML (Acute Myeloid Leukemia) cell lines; assay: Cytotoxicity in AML cell lines; type: cell-based; details: four different AML cell lines; compared with Ruxolitinib and Comp A
Description: The cytotoxicity of cerdulatinib in AML (Acute Myeloid Leukemia) was tested in four different cell lines.

SYK and JAK signaling = assay: Whole blood assays of SYK and JAK signaling (BCR, IL2, IL4, IL6, GM-CSF); type: in vivo, human; details: 45 mg BID; steady-state Cmin; peripheral blood assays
Description: (§3) Methods: This experiment was a 3+3 dose escalation study with 28-day cycles and doses studied ranging from 15 mg to 100 mg QD, and up to 45 mg BID. PK, PD, and safety were monitored. Clinical response was assessed by standard criteria. The level of inhibition of SYK and JAK was determined by multiple whole blood assays measuring signaling via BCR, IL2, IL4, IL6, and GM-CSF. Serum markers of tumor burden-CCL3, CCL4, and other markers of inflammation-B2M, CRP, were also measured.

[5] = test system: serum markers of inflammation (B2M, CRP); assay: Serum markers of inflammation in dosed patients; type: in vivo, human; details: once daily 40-100 mg
Description: as §3

[6] = test system: patients with CLL/SLL or B cell NHL; assay: Clinical response by standard criteria in dose escalation study; type: in vivo, human; details: 28-day cycles
Description: as §3
(§4) Results: As of Jan. 7, 2016, 41 patients (pt) with CLL/SLL or B cell NHL were dosed. Median age was 67 years (range 23-85) and median prior therapies (tx) was 3 (range 1-8). […] The patient with grade 3 AST had tumor progression to the liver. The pancreatitis at 45 mg BID was considered at DLT and the cohort is expanding to approximately 6 patients.

[7] = test system: patients with CLL/SLL or B cell NHL; assay: Safety in 3+3 dose escalation study; type: in vivo, human
Description: as §3, §4

[8] = Pharmacokinetics in 3+3 dose escalation study; type: in vivo, human
Description: as §3

steady-state Cmin ([8]; 45 mg BID)	average steady state Cmin ([8]; 40-100 mg dose range, once daily) [nM]	Cmax ([8]; human, in vivo, 40-100 mg dose range, once daily, read-out: average steady state Cmax) [nM]	half-life ([8]; human, in vivo, patients, once daily dosing) [h]	SMILES	inhibition of cell proliferation (EdU as indicator) [1]	activation of Caspase3 expression (indicator of apoptosis) [2]	IC50 (cytotoxicity) compared to Comp A [3]	cytotoxicity in AML cells [4]	inhibition of SYK and JAK (SYK and JAK signaling)	inhibition of serum markers of inflammation [5]	time at which responses occurred [6]	tolerability ([7]; 15 mg to 100 mg QD, up to 45 mg BID, 41 patients)	treatment emergent AEs of ≥ grade 3 deemed related to study drug ([7]; 30 mg)	treatment emergent AEs of ≥ grade 3 deemed related to study drug ([7]; 45 mg)	treatment emergent AEs of ≥ grade 3 deemed related to study drug ([7]; 45 mg BID, considered DLT)	treatment emergent AEs of ≥ grade 3 deemed related to study drug ([7]; 50 mg)	treatment emergent AEs of ≥ grade 3 deemed related to study drug ([7]; 65 mg)	treatment emergent AEs of ≥ grade 3 deemed related to study drug ([7]; 100 mg)	change in systemic exposure ([8]; 45 mg BID relative to previous dose levels)	solubility / dissolution ([8]; inferred from plateau of exposure over 40-100 mg)
–	–	–	–	CC(C)CCN1c2nc(Nc3cc(F)c(O)c(F)c3)ncc2N(C)C(=O)C1C (stereo not shown) [BI-D1870, reference compound]	dose-dependently inhibited cell proliferation	dose-dependently activated the expression of Caspase3	–	–	–	–	–	–	–	–	–	–	–	–	–	–
approximately 1.5 μM	700 ± 200	1380	12 to 16	CCS(=O)(=O)N1CCN(c2ccc(Nc3ncc(C(N)=O)c(NC4CC4)n3)cc2)CC1 [cerdulatinib, 4-(cyclopropylamino)-2-(4-(4-(ethylsulfonyl)piperazin-1-yl)phenylamino)pyrimidine-5-carboxamide]	dose-dependently inhibited cell proliferation	activated apoptosis; also recorded: dose-dependently activated caspase3 expression	more potent than Comp A	more active than Ruxolitinib, a JAK inhibitor, and Comp A; also recorded: active in killing AML cells	complete inhibition	Significant inhibition	2 cycles of tx	well tolerated	neutropenia (n=2), anemia (n=1), and pneumocystis pneumonia (grade 5, n=1)	anemia, AST increase, hypotension, thrombocytopenia (n=1 for each), and fatigue (n=2)	pancreatitis (n=1)	anemia, neutropenia, abdominal pain, pneumonia, and fatigue (n=1 for each)	diarrhea and fatigue (n=1 for each)	nausea (n=1)	approximate doubling in exposure; also recorded: doubled	low pH solubility appeared to limit dissolution
